We go through eight compounds from PMC5513680 (Medical Science Monitor : International Medical Journal of …, 2017).

Type in all cases: biochemical
For experiment [1], the target named is butylcholinesterase (BuChE) (Homo sapiens, UniProt P06276). Description: BChE inhibition assay.
Experiment [2] deals with Acetylcholinesterase (AChE) (Homo sapiens, UniProt P22303). The experiment in a line: AChE inhibition assay. The note with it: for Selectivity Index (SI): determined by BuChE/AChE (IC50 ratio).
For experiment [3], the target named is Aβ (1–42) (Homo sapiens, UniProt P05067). The experiment in a line: Self-mediated Aβ.
For experiment [4], the target named is β-secretase (Homo sapiens, UniProt P56817). The experiment in a line: β-secretase inhibition assay.

Structures are written as SMILES.

Sequence of butylcholinesterase (BuChE) (P06276 29-602): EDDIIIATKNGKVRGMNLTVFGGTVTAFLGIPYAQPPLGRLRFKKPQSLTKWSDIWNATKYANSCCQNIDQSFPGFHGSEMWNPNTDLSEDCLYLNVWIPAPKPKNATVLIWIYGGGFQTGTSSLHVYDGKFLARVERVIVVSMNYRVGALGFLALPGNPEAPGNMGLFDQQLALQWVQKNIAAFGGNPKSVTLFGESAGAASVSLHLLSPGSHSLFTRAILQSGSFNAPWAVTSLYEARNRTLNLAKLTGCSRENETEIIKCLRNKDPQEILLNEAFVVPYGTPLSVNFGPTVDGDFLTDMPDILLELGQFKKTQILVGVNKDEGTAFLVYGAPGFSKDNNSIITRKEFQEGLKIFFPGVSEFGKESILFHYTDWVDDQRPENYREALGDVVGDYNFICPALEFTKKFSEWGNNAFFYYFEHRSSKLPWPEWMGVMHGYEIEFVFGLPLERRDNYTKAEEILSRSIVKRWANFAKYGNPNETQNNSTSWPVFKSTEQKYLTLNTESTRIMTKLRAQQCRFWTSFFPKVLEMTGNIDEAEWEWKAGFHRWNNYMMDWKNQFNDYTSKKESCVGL
Sequence of Acetylcholinesterase (AChE) (P22303 32-614, species assumed): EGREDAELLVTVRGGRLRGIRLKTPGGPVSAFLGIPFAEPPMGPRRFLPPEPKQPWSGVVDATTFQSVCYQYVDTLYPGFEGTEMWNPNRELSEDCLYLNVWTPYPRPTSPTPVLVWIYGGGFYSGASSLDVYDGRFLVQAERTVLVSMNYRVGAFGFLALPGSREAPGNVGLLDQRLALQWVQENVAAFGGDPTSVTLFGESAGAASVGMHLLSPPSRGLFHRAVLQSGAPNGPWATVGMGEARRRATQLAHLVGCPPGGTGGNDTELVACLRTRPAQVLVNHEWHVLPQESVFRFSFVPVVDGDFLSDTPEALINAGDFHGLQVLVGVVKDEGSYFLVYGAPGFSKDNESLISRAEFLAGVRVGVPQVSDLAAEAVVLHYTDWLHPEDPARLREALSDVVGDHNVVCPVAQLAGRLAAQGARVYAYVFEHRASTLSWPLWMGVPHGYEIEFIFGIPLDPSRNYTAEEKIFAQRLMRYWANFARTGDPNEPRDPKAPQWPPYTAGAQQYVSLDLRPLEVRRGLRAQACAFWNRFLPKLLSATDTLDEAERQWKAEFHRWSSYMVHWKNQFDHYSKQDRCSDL
Sequence of Aβ (1–42) (P05067 672-713): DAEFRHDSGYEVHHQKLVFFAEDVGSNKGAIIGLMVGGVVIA
Sequence of β-secretase (P56817 46-501): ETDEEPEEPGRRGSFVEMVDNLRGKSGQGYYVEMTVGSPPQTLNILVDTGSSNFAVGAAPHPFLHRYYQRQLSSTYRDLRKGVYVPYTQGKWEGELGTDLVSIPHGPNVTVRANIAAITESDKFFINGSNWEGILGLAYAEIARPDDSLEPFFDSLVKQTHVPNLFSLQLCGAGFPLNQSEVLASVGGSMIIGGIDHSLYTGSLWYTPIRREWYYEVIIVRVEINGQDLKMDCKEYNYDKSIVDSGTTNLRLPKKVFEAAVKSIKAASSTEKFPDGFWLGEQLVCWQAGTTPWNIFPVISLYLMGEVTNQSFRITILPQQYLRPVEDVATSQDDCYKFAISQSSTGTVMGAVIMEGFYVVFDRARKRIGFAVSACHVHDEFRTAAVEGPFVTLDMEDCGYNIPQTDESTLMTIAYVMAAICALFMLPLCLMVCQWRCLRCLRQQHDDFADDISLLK

For orientation: IC50 means the midpoint of a concentration-inhibition curve. Low values mean greater potency in that assay, high ones weaker potency in that assay. As for `O=C(/C=C/c1ccccc1)c1ccc(OCCNC2CCN(Cc3ccccc3)CC2)cc1` [8a, (E)-1-(4-(2-((1-benzylpiperidin-4-yl)amino)ethoxy)phenyl)-3-phenylprop-2-en-1-one], the figures for the IC50 in experiment [1] and in experiment [2] were 21.72 ± 0.11 µM and 32.34 ± 0.26 µM, respectively. In experiment [2], the “Selectivity Index (SI)” value was determined as 0.67.
`O=C(/C=C/c1ccccc1)c1ccc(OCCNC2CCN(Cc3ccc(Cl)cc3)CC2)cc1` [8b, (E)-1-(4-(2-((1-(4-chlorobenzyl)piperidin-4-yl)amino)ethoxy)phenyl)-3-phenylprop-2-en-1-one] yielded an IC50 in experiment [1] of 19.45 ± 0.15 µM. Moreover, in experiment [2], the IC50 amounted to 10 ± 0.54 µM and the “Selectivity Index (SI)” value worked out at 1.93.
The matching figures for `O=C(/C=C/c1ccccc1)c1ccc(OCCNC2CCN(Cc3ccc(Br)cc3)CC2)cc1` [8c, (E)-1-(4-(2-((1-(4-bromobenzyl)piperidin-4-yl)amino)ethoxy)phenyl)-3-phenylprop-2-en-1-one]: 28.4 ± 0.42 µM, 18.1 ± 0.33 µM and 1.56.
In the case of `O=C(/C=C/c1ccccc1)c1ccc(OCCNC2CCN(Cc3ccc(F)cc3)CC2)cc1` [8d, (E)-1-(4-(2-((1-(4-fluorobenzyl)piperidin-4-yl)amino)ethoxy)phenyl)-3-phenylprop-2-en-1-one], the results for the IC50 in experiment [1] and in experiment [2] were 26.5 ± 0.28 µM and 14.2 ± 0.15 µM, respectively. Further, the “Selectivity Index (SI)” value in experiment [2] came to 1.86.
`O=C(/C=C/c1ccccc1)c1ccc(OCCNC2CCN(Cc3ccc([N+](=O)[O-])cc3)CC2)cc1` [8e, (E)-1-(4-(2-((1-(4-nitrobenzyl)piperidin-4-yl)amino)ethoxy)phenyl)-3-phenylprop-2-en-1-one] displayed an IC50 in experiment [1] of 25 ± 0.31 µM. In experiment [2], it took 28.62 ± 0.22 µM to reach half-maximal inhibition (IC50) and the “Selectivity Index (SI)” value was 0.87.
`COc1ccc(CN2CCC(NCCOc3ccc(C(=O)/C=C/c4ccccc4)cc3)CC2)cc1` [8f, (E)-1-(4-(2-((1-(4-methoxybenzyl)piperidin-4-yl)amino)ethoxy)phenyl)-3-phenylprop-2-en-1-one] yielded an IC50 in experiment [1] of 9.45 ± 0.25 µM. For the same compound, in experiment [1] (relative to 8g), the “fold less active against BuChE than the parent compound (8g)” value is reported as “approximately 3 fold”. Besides, in experiment [2], the IC50 was determined as 4.22 ± 0.34 µM and the “Selectivity Index (SI)” value is reported as 2.23. Besides, the “fold less active against AChE than the parent compound (8g)” value in experiment [2] (relative to 8g) was “approximately 3 fold”.
On to `Cc1ccc(CN2CCC(NCCOc3ccc(C(=O)/C=C/c4ccccc4)cc3)CC2)cc1` [8g, (E)-1-(4-(2-((1-(4-methylbenzyl)piperidin-4-yl)amino)ethoxy)phenyl)-3-phenylprop-2-en-1-one], for which the 50% inhibitory concentration (IC50) in experiment [1] is 3.23 ± 0.12 µM; in experiment [2], 1.12 ± 0.13 µM; in experiment [3] it was 18.2 ± 2.3 µM; in experiment [4], 23.1 ± 1.8 µM. The “Selectivity Index (SI)” value in experiment [2] is listed as 2.88.
As for `O=C(/C=C/c1ccccc1)c1ccc(OCCNC2CCN(Cc3ccc(Cl)c(Cl)c3)CC2)cc1` [8h, (E)-1-(4-(2-((1-(3,4-dichlorobenzyl)piperidin-4-yl)amino)ethoxy)phenyl)-3-phenylprop-2-en-1-one], the “Selectivity Index (SI)” value in experiment [2] turned out to be 1.06.
